These results are taken from patent publication EP2150534B1, “ISOQUINOLINONE DERIVATIVES AS NK3 ANTAGONISTS” (H. Lundbeck A/S, priority 2007, dated 2008).

Assay [1] has as its target T1, human NK3 receptor (Homo sapiens, UniProt P29371).
T1 construct: expressed in transfected cells; membranes prepared from them
T1 sequence (P29371 1-465): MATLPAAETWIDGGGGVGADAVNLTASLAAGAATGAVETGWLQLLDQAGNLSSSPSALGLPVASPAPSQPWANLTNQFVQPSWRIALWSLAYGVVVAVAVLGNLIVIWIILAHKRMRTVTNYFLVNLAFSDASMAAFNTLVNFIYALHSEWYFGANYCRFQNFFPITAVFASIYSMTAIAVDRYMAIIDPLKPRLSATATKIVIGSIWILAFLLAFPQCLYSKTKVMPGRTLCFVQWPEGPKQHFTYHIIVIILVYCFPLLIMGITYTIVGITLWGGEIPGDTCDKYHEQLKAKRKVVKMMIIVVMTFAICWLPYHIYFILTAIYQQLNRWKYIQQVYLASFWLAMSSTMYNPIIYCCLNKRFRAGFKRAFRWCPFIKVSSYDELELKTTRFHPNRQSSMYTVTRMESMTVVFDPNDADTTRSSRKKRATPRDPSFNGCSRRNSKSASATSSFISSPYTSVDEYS
In words: NK3 receptor binding assay (SPA-based competition binding with 125I-NKB, membranes of BHK cells). Here is the method: Membranepreparation: BHK cells stably expressing the human NK3 receptor were seeded in harvesting plates in Dulbeccos MEM containing GlutaMax (862 mg/l), 1 mM sodium pyruvate, 10% fetal calf serum, 1% Pen/Strep, I mg/ml G418 and were grown at 34 °C in a humidified atmosphere containing 10% CO2. To increase receptor expression, 10 µM trichotatin A was added to the media 24 hours before harvest of the cells at a confluency of app 90%. Prior to the harvesting, the cells were washed twice with PBS without Mg^2+ og Ca^2+ and subsequently scrapped of in 10 ml PBS pr harvesting plate. The cells suspension were centrifuged at 1500xG in three minutes before resuspension in 15 mM Tris-HCl pH 7,5 buffer containing 2 mM MgCl2; 0,3 mM EDTA and 1 mM EGTA (buffer A). The cell suspention was homogenised and subsequently centrifuged at 40000xG in 30 minutes. The membrane-pellet was resuspended in buffer A containing 250 mM sucrose, alliquoted and stored at - 80°C.
Affinity assay description: The assay was performed as a SPA-based competition-binding assay in a 50 mM Tris pH 7.4 assay buffer containing 120 mM NaCl, 3 mM MnCl2, 40 µg/ml bacitracin, 2 µg/ml Chymostatin, 1 µg/ml Phosphoramidon and 4 µg/ml Leupeptin. App 0.02 nM ^125I-NKB was mixed with test compounds before addition of 4 µg of the homogenised NK3 membrane preparation and 0,025 mg SPA beads in a total volume of 60 µl. The assay plate was subsequently under agitation incubated for 90 min at RT. The plate was centrifugated 10 minutes at 500xG and counted in a topcounter 5 minuttes pr well.
The non-specific binding constituted app 5 % of the total binding.
Data points were expressed in percent of the specific binding of ^125I-NKB and the IC50 values (concentration causing 50 percent inhibition of ^125I-NKB specific binding) were determined by non-linear regression analysis using a sigmoidal variable slope curve fitting. The dissociation constant (Ki) were calculated from the Cheng Prusoff equation (Ki = IG50/(1+(L/KD))), where the concentration of free radioligand L is approximated to the concentration of added ^125I-NKB in the assay (app 0,02 nM).
The KD of ^125I-NKB was determined to be 0,7 nM from three independent saturation assays each performed with duplicate determinations. Bmax was app 2 pmol/mg.

For assay [2], the target named is T1, human NK3 receptor. In words: NK3 receptor efficacy and potency assay (FLIPR Calcium 4 assay, BHK cells; agonist and antagonist mode versus NKB). The assay is classed as cell-based. As to conditions: read-out: Potency cIC50. Here is the method: BHK cells stably expressing the human NK3 receptor were seeded in 100 µl media in black walled clear-base 96-wells plates (Costar) aiming at a confluency of 95-100% at the day of assay. The assay was performed according to the FLIPR Calcium 4 Assay kit (Molecular Devices). At the day of the assay, the media was removed and the cells were washed once with the HBSS buffer (Hanks BSS buffer, pH 7,4 containing 20 mM Hepes) before 100 µl of a solution of the calcium assay reagent dissolved in the HBSS buffer containing 2,5 mM probinicid was added to the cells. The plates were incubated for 60 min at 34°C, 10% CO2 before use in the FLIPR for examination of fluorescence.
For efficacy and potency evaluation of compounds, these were diluted in HBSS buffer prior to test. For test of agonist activity, 25 µl of the diluted compound solution was added and the plate was analyzed for 5 minutes in the FLIPR. […] The plates were subsequently analyzed for 5 minutes before the assay was terminated. The maximal increase in fluorescence over background following each ligand addition was determined.

The mark [3] stands for this setting: table of Example 10, affinity obtained as described in Example 9, read-out: Affinity Ki.
Where [4] appears, read: Ki for the NK3 receptor, table of Example 9, 125I-NKB competition binding, read-out: Ki.

Where two headings read alike, the source gives them in different places.

Regarding `CC[C@H](NC(=O)c1c(CN2CCC(O)(c3cccc(OC)c3)CC2)n(-c2ccccc2)c(=O)c2ccccc12)c1ccccc1` [Example 2gt, 3-[4-Hydroxy-4-(3-methoxy-phenyl)-piperidin-1-ylmethyl]-1-oxo-2-phenyl-1,2-dihydro-isoquinoline-4-carboxylic acid ((S)-1-phenyl-propyl)-amide], the Ki at human NK3 receptor [1] (setting [3]) turned out to be 9.2 nM. In addition, the IC50 on human NK3 receptor [2] was 22 nM.
On to `O=C(NC(c1cccc(F)c1)C1CC1)c1c(CN2CCN(CCc3ccccc3)CC2)n(-c2ccccc2)c(=O)c2ccccc12` (stereo not shown) [Example 2hq, 1-Oxo-3-(4-phenethyl-piperazin-1-ylmethyl)-2-phenyl-1,2-dihydro-isoquinoline-4-carboxylic acid [cyclopropyl-(3-fluoro-phenyl)-methyl]-amide], for which the inhibition constant Ki at human NK3 receptor [1] (setting [3]) worked out at 10 nM. For the same compound, the IC50 at human NK3 receptor [2] amounted to 44 nM.
As to `O=C(NC(c1cccc(F)c1)C1CC1)c1c(CN2CCN(CCN3CCOCC3)CC2)n(-c2ccccc2)c(=O)c2ccccc12` (stereo not shown) [Example 2hs], the inhibitory constant (Ki) on human NK3 receptor [1] (setting [4]) worked out at 5.3 nM; on human NK3 receptor [1] (setting [3]), 7.5 nM. For the same compound, the IC50 at human NK3 receptor [2] turned out to be 21 nM.
For the compound `O=C(NC(c1cccc(F)c1)C1CC1)c1c(CN2CCN(CCN3CCCCC3)CC2)n(-c2ccccc2)c(=O)c2ccccc12` (stereo not shown) [Example 2hu, 1-Oxo-2-phenyl-3-[4-(2-piperidin-1-yl-ethyl)-piperazin-1-ylmethyl]-1,2-dihydro-isoquinoline-4-carboxylic acid [cyclopropyl-(3-fluoro-phenyl)-methyl]-amide], the inhibition constant (Ki) at human NK3 receptor [1] (setting [3]) was determined as 6.2 nM. In addition, the IC50 at human NK3 receptor [2] was found to be 29 nM.
Take `O=C(NC(c1cccc(F)c1)C1CC1)c1c(CN2CCN(CCN3CCCC3)CC2)n(-c2ccccc2)c(=O)c2ccccc12` (stereo not shown) [Example 2hv, 1-Oxo-2-phenyl-3-[4-(2-pyrrolidin-1-yl-ethyl)-piperazin-1-ylmethyl]-1,2-dihydro-isoquinolinc-4-carboxylic acid [cyclopropyl-(3-fluoro-phenyl)-methyl]-amide]: on human NK3 receptor [1] (setting [3]), the Ki was 14 nM. Also, the IC50 at human NK3 receptor [2] is 35 nM.
The like results for `O=C(NC(c1cccc(F)c1)C1CC1)c1c(CN2CCN(Cc3ccncc3)CC2)n(-c2ccccc2)c(=O)c2ccccc12` (stereo not shown) [Example 2hw, 1-Oxo-2-phenyl-3-(4-pyridin4-methyl-piperazin-1-ylmethyl)-1,2-dihydro-isoquinoline-4-carboxylic acid [cyclopropyl-(3-fluoro-phenyl)-methyl]-amide] were, in that order, 8.2 nM and 63 nM.
As for `O=C(NC(c1cccc(F)c1)C1CC1)c1c(CN2CCC(O)(c3ccncc3)CC2)n(-c2ccccc2)c(=O)c2ccccc12` (stereo not shown) [Example 2hx, 3-(4-Hydroxy-3,4,5,6-tetrahydro-2H-[4,4']bipyridinyl-1-ylmethyl)-1-oxo-2-phenyl-1,2-dihydro-isoquinoline-4-carboxylic acid [cyclopropyl-(3-fluoro-phenyl)-methyl]-amide], the Ki at human NK3 receptor [1] (setting [3]) was 9.3 nM. Also, at human NK3 receptor [2], the IC50 worked out at 68 nM.
The like results for `O=C(NC(c1cccc(F)c1)C1CC1)c1c(CN2CCC(CCN3CCOCC3)CC2)n(-c2ccccc2)c(=O)c2ccccc12` (stereo not shown) [Example 2hy, 3-[4-(2-Morpholin-4-yl-ethyl)-piperidin-1-ylmethyl]-1-oxo-2-phenyl-1,2-dihydro-isoquinoline-4-carboxylic acid [cyclopropyl-(3-fluoro-phenyl)-methyl]-amide] were, in that order, 8.8 nM and 63 nM.
Consider `COc1cccc(C2(O)CCN(Cc3c(C(=O)NC(c4cccc(F)c4)C4CC4)c4ccccc4c(=O)n3-c3ccccc3)CC2)c1` (stereo not shown) [Example 2hz, 3-[4-Hydroxy-4-(3-methoxy-phenyl)-piperidin-1-ylmethyl]-1-oxo-2-phenyl-1,2-dihydro-isoquinoline-4-carboxylic acid [cyclopropyl-(3-fluoro-phenyl)-methyl]-amide], for which the Ki on human NK3 receptor [1] (setting [4]) is 3 nM; on human NK3 receptor [1] (setting [3]), 4.5 nM. Moreover, the IC50 on human NK3 receptor [2] was 35 nM.
As to `CC(=O)N(C)C1(c2ccccc2)CCN(Cc2c(C(=O)NC(c3cccc(F)c3)C3CC3)c3ccccc3c(=O)n2-c2ccccc2)CC1` (stereo not shown) [Example 2ia, 3-[4-(Acetyl-methyl-amino)-4-phenyl-piperidin-1-ylmethyl]-1-oxo-2-phenyl-1,2-dihydro-isoquinoline-4-carboxylic acid [cyclopropyl-(3-fluoro-phenyl)-methyl]-amide], at human NK3 receptor [1] (setting [3]), the Ki stood at 12 nM. Moreover, the IC50 on human NK3 receptor [2] turned out to be 100 nM.
As for `CC[C@H](NC(=O)c1c(CN2CCC(O)(c3cccc(OC)c3)CC2)n(-c2cccc(F)c2)c(=O)c2ccccc12)c1ccccc1` [Example 2iy, 2-(3-Fluoro-phenyl)-3-[4-hydroxy-4-(3-methoxy-phenyl)-piperidin-1-ylmethyl]-1-oxo-1,2-dihydro-isoquinoline-4-carboxylic acid ((S)-1-phenyl-propyl)-amide], the inhibition constant Ki on human NK3 receptor [1] (setting [3]) came to 17 nM. The IC50 on human NK3 receptor [2] was determined as 92 nM.
`CC[C@H](NC(=O)c1c(CN2CCCNCC2)n(-c2ccccc2)c(=O)c2c(Cl)cccc12)c1ccccc1` [Example 2kh, 8-Chloro-3-[1,4]diazepan-1-ylmethyl-1-oxo-2-phenyl-1,2-dihydro-isoquinoline-4-carboxylic acid ((S)-1-phenyl-propyl)-amide]: on human NK3 receptor [1] (setting [3]), the Ki worked out at 82 nM. The IC50 on human NK3 receptor [2] came out at 120 nM.
Taken in the same sequence, the figures for `CC[C@H](NC(=O)c1c(CN2CCC(O)(c3cccc(OC)c3)CC2)n(-c2ccccc2)c(=O)c2c(Cl)cccc12)c1ccccc1` [Example 2kn, 8-Chloro-3-[4-hydroxy-4-(3-methoxy-phenyl)-piperidin-1-ylmethyl]-1-oxo-2-phenyl-1,2-dihydro-isoquinoline-4-carboxylic acid ((S)-1-phenyl-propyl)-amide] were 8.7 nM and 41 nM.
With `CC[C@H](NC(=O)c1c(CN2CCN(C(C)(C)C)CC2)n(-c2ccccc2)c(=O)c2c(Cl)cccc12)c1ccccc1` [Example 2ko, 3-(4-tert-Butyl-piperazin-1-ylmethyl)-8-chloro-1-oxo-2-phenyl-1,2-dihydro-isoquinoline-4-carboxylic acid ((S)-1-phenyl-propyl)-amide], the inhibition constant Ki at human NK3 receptor [1] (setting [3]) was found to be 11 nM. The IC50 on human NK3 receptor [2] is 5.6 nM.
The like results for `CC[C@H](NC(=O)c1c(CN2CCN(C(C)(C)C)CC2)n(-c2ccccc2)c(=O)c2c(F)cccc12)c1ccccc1` [Example 2lj, 3-(4-tert-Butyl-piperazin-1-ylmethyl)-8-fluoro-1-oxo-2-phenyl-1,2-dihydro-isoquinoline-4-carboxylic acid ((S)-1-phenyl-propyl)-amide] were, in that order, 18 nM and 16 nM.
The like results for `CC(C)(C)N1CCN(Cc2c(C(=O)N[C@H](c3cccc(F)c3)C3CC3)c3cccc(F)c3c(=O)n2-c2ccccc2)CC1` [Example 2ll, 3-(4-tert-Butyl-piperazin-1-ylmethyl)-8-fluoro-1-oxo-2-phenyl-1,2-dihydro-isoquinoline-4-carboxylic acid [(S)-cyclopropyl-(3-fluoro-phenyl)-methyl]-amide] were, in that order, 7.9 nM and 6.3 nM.
